In article PMC7206119, “RIP1 inhibition blocks inflammatory diseases but not tumor growth or metastases” (Cell Death and Differentiation, 2019) one finds inhibition data, which are given here for 1 compound.

Each structure is given as a SMILES string.

Common to all, as to assay: biochemical
Holding throughout (design): Thermo Fisher SelectScreen kinase panel: Z'-LYTE and Adapta activity, LanthaScreen binding

One experiment deals with CDK7/cyclinH (Homo sapiens, UniProt P50613). The method, then:
(§1) 5 88 GNE684 was tested in Thermo Fisher Scientific SelectScreen assay (Madison, WI) 89 against 221 representative kinases at a concentration of 10 µM, which is 476-fold greater than the Ki app 90 for GNE684 against human RIP1 in the RIP1 enzyme 91 assay. The kinase assays were carried out using Z'-LYTE and Adapta activity and 92 LanthaScreen binding assays (Thermo Fisher Scientific, Madison WI) following 93 protocols developed and performed by Thermo Fisher Scientific 94 (https://www.thermofisher.com/us/en/home/products-and-services/services/custom-95 services/screening-and-profiling-services/selectscreen-profiling-service/selectscreen-96 kinase-profiling-service.html). 97 GNE684 was also tested against 468 kinases in the KINOMEscan scanMAX kinase 98 binding assay panel at a concentration of 10 µM following protocols developed and 99 performed by DiscoverX (http://www.discoverx.com/kinase_profiling).

The next experiment deals with T1, CHK2 (Homo sapiens, UniProt O96017).
T1 construct: gene CHEK2
The procedure: as §1

The target of a further experiment is T2, CK2_alpha1 (Homo sapiens, UniProt P68400).
T2 construct: gene CSNK2A1
T2 sequence (P68400 whole entry): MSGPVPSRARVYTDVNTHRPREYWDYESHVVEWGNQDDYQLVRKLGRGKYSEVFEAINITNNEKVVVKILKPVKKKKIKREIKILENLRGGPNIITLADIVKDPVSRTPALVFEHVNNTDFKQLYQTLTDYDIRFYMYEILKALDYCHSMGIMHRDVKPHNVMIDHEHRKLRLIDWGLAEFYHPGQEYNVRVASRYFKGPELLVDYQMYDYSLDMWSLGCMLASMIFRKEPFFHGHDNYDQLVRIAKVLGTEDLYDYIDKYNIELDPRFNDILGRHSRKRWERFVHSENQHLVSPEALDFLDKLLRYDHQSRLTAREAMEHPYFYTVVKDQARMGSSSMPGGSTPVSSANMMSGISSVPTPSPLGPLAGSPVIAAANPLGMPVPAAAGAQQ
The procedure:
as §1

In a further experiment the target is DDR1 (Homo sapiens, UniProt Q08345). The procedure:
as §1

A further experiment addresses EPHA3 (Homo sapiens, UniProt P29320). The method, then:
as §1

Another experiment addresses EPHA7 (Homo sapiens, UniProt Q15375). The method, then:
as §1

The target in a further experiment is FGFR1 (Homo sapiens, UniProt P11362). The procedure:
as §1

Another experiment concerns the target FGR (Homo sapiens, UniProt P09769). The procedure:
as §1

The target of a further experiment is GRK3 (Homo sapiens, UniProt P35626). The procedure: as §1
In a further experiment the target is GRK5 (Homo sapiens, UniProt P34947). The method, then:
as §1

For the next experiment, the target named is HIPK1 (Homo sapiens, UniProt Q86Z02). The method, then:
as §1

In a further experiment the target is LCK (Homo sapiens, UniProt P06239). The method, then: as §1
The next experiment has as its target MET (Homo sapiens, UniProt P08581). The method, then:
as §1

The next experiment concerns the target T3, MST3 (Homo sapiens, UniProt Q9Y6E0).
T3 construct: gene STK24
The method, then:
as §1

The target of the next experiment is T4, MST4 (Homo sapiens, UniProt Q9P289).
T4 construct: gene STK26
The procedure:
as §1

Another experiment addresses T5, MYLK3(caMLCK) (Homo sapiens, UniProt Q32MK0).
T5 construct: cardiac MLCK
The procedure: as §1

Another experiment addresses T6, PI3K-G (Homo sapiens, UniProt P48736).
T6 construct: gene PIK3CG; p110gamma
The procedure:
as §1

The target in another experiment is T7, PKC_delta (Homo sapiens, UniProt Q05655).
T7 construct: gene PRKCD
T7 sequence (Q05655 whole entry): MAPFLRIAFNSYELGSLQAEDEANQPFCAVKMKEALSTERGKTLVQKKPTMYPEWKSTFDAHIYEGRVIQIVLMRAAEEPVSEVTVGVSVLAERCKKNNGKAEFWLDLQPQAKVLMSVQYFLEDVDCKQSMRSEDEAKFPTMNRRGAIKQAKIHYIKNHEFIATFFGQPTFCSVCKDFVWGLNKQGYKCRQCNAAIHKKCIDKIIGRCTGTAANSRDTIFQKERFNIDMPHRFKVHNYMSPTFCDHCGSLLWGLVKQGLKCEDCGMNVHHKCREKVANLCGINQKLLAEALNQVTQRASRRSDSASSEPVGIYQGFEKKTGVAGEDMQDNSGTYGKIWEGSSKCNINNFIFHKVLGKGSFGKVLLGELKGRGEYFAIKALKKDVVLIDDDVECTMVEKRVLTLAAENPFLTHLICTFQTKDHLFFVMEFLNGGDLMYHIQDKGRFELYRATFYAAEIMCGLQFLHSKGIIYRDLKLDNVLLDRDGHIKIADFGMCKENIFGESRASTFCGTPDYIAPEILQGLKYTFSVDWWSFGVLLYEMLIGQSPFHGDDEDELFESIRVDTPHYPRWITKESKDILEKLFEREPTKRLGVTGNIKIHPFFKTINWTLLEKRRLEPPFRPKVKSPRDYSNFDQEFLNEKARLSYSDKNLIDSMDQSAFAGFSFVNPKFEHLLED
The procedure:
as §1

The target of another experiment is T8, PKC_zeta (Homo sapiens, UniProt Q05513).
T8 construct: gene PRKCZ
The method, then: as §1

In another experiment the target is SGK3 (Homo sapiens, UniProt Q96BR1). The method, then:
as §1

The target in another experiment is STK16 (Homo sapiens, UniProt O75716). The method, then: as §1
Sequence of STK16 (O75716 whole entry): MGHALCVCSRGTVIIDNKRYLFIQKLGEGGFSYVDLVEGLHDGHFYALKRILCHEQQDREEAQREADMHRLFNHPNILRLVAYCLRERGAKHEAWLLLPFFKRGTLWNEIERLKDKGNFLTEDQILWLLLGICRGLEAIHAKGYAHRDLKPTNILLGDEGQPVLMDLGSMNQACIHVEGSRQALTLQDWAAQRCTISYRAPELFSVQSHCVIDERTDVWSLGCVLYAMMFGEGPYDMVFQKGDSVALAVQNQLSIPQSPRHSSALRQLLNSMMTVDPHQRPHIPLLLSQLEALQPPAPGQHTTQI
The target of the next experiment is TEC (Homo sapiens, UniProt P42680). The procedure:
as §1

The next experiment has as its target T9, TSSK1 (Homo sapiens, UniProt Q9BXA7).
T9 construct: gene TSSK1B
The method, then: as §1

T5 sequence (Q32MK0 whole entry): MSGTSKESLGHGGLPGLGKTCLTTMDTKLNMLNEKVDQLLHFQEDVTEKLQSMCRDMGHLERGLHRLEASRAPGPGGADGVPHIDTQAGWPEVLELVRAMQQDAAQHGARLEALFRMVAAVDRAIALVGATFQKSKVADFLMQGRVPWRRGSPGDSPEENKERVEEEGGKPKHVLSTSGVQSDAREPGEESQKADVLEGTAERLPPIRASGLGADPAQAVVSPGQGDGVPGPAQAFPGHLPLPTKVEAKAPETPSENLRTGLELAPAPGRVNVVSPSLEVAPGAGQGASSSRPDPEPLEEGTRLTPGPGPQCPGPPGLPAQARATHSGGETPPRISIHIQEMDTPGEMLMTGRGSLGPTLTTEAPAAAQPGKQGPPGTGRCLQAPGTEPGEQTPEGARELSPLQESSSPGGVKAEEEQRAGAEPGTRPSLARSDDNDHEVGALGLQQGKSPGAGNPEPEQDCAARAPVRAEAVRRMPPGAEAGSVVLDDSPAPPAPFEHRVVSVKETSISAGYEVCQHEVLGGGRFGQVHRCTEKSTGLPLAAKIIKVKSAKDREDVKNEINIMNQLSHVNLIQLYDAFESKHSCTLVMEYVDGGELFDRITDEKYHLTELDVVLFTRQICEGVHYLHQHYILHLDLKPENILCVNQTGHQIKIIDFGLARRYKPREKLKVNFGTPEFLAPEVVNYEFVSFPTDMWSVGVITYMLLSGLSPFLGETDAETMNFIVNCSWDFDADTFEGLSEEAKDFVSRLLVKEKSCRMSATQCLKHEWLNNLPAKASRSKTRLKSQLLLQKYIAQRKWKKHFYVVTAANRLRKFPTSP
Sequence of GRK5 (P34947 whole entry): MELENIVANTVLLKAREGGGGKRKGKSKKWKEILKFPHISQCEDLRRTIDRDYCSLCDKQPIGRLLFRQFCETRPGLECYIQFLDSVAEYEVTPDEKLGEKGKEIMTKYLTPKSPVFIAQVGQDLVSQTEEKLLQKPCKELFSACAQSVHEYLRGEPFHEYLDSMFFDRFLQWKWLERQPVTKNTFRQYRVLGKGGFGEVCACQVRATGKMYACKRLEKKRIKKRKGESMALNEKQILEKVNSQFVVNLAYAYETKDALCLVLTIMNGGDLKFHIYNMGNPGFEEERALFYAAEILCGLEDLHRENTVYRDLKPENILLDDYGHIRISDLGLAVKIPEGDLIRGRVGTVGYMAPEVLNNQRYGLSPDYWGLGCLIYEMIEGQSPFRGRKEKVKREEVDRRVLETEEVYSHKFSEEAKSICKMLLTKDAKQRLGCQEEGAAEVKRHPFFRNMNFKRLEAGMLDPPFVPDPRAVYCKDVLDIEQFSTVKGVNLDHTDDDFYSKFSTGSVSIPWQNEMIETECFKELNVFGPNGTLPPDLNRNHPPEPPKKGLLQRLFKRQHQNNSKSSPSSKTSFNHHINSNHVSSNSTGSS
Sequence of EPHA7 (Q15375 whole entry): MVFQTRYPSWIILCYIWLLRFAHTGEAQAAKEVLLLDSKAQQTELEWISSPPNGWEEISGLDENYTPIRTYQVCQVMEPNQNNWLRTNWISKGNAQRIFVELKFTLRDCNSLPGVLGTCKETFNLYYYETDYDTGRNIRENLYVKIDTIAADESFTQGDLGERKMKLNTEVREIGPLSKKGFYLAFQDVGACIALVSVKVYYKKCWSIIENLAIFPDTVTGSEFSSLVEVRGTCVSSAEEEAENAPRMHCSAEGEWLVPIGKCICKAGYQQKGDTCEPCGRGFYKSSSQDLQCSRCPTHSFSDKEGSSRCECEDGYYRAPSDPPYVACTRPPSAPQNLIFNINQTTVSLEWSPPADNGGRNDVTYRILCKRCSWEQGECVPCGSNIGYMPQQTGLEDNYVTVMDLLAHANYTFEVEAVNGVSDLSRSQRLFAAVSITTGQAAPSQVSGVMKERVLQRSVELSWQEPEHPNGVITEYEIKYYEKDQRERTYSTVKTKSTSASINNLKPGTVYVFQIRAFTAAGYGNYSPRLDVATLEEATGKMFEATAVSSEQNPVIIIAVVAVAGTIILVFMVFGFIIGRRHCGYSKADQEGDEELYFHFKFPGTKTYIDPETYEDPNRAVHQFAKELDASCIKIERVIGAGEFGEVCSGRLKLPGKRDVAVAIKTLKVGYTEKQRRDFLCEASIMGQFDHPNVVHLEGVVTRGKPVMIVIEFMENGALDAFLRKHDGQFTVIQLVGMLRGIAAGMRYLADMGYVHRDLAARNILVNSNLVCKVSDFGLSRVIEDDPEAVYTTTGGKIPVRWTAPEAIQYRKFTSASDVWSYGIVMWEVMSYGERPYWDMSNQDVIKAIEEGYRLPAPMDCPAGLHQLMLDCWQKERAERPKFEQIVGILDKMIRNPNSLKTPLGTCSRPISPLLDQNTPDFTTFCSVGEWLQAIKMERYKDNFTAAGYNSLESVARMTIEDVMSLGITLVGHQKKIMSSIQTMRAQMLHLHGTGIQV
T3 sequence (Q9Y6E0 whole entry): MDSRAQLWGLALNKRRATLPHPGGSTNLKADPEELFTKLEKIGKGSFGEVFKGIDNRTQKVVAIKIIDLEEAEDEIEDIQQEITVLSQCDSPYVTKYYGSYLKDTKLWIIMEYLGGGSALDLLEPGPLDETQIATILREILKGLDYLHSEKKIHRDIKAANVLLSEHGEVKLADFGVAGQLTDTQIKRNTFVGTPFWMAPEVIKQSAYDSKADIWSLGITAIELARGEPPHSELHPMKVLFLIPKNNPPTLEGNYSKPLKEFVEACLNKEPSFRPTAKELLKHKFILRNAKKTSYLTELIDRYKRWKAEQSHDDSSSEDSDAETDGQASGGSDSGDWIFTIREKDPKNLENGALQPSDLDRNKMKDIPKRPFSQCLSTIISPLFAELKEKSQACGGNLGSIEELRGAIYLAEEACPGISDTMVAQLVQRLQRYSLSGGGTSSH
Sequence of SGK3 (Q96BR1 whole entry): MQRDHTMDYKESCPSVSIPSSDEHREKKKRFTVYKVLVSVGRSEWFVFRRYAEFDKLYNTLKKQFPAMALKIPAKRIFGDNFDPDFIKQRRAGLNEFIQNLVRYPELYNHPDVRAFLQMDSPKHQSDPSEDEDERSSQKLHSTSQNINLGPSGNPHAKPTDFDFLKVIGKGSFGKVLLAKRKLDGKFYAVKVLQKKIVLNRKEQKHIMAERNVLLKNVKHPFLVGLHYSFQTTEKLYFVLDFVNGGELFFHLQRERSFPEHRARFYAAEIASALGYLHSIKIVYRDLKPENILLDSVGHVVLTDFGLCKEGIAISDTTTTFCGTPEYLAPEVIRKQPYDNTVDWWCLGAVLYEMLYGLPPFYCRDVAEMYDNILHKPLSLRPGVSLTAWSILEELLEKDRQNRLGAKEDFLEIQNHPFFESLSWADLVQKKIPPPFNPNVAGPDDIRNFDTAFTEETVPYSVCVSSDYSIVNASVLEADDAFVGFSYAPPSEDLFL

With `COc1cc2c(cn1)N(C)C(=O)[C@@H](NC(=O)c1nc3n(n1)[C@H](c1ccccc1)CC3)CC2` [GNE684, (S)-N-((S)-7-methoxy-1-methyl-2-oxo-2,3,4,5-tetrahydro-1H-pyrido[3,4-b]azepin-3-yl)-5-phenyl-6,7-dihydro-5H-pyrrolo[1,2-b][1,2,4]triazole-2-carboxamide], the inhibition at 10 µM was 5% on CDK7/cyclinH; 5% on CHK2; 3.5% at CK2_alpha1; 4.5% on DDR1; -3.5% at EPHA3; -4% on EPHA7. Further, the inhibition at 10 µM is -2% at FGFR1; 8% at FGR; 2.5% at GRK3; 4.5% at GRK5; 0% on HIPK1; 5% at LCK. In addition, the inhibition at 10 µM on MET is -2%; on MST3, 4%; at MST4, 3.5%; on MYLK3(caMLCK), -11%; at PI3K-G it was 13.5%; on PKC_delta it was 8%. Moreover, the inhibition at 10 µM at PKC_zeta is -2.5%; at SGK3, 1.5%; at STK16, -2%; at TEC, -1%; at TSSK1 it was 6%.
